These results are taken from US8383601B2, “Tissue specific gene therapy treatment” (Thomas Jefferson University, priority 2006, dated 2013).

Where no end group is shown, it is not given here.

The subject of assay [1] is S100A1 mRNA expression in RCEC. The assay is described as follows: Regulation of S100A1 expression in endothelial cells. It is filed as cell-based, rat. Conditions: 10^−7 M, 60 hours, versus PBS. How it is done: Regulation of S100A1 expression in HCAEC—After growing HCAEC or RCEC to 90% confluency full medium was replaced by basal EBM-2 medium with 0.5% serum and cells were stimulated with endothelin-1 (ET-1), angiotensin II (AngII) (both 10^−7 M) or PBS for 60 h. Cells were harvested for either mRNA or protein isolation and S100A1 expression was standardized against 18S rRNA or GAPDH.
RNA Isolation and Real-time RT-PCR—Total RNA was isolated from either HCAEC or […] using Trizol® (Life Technologies). cDNA was synthesized by reverse transcription of the RNA with Superscript II® (Life Technologies) as recommended. Real-time PCR was performed in duplicates with a 1:100 dilution of the cDNA on a MyIQ real time PCR detection system (BioRad) with the SYBR® Green PCR master mix (Applied Biosystems). The oligonucleotide primers to examine expression of genes were as follows: S100A1, forward primer 5′-[…]-3′ (SEQ. ID. No. 19), reverse primer 5′-[…]-3′ (SEQ. ID. No. 20). For normalization, 18S rRNA was used, forward primer 5′-[…]-3′ (SEQ. ID. No. 27), reverse primer 5′-GGACATCTAAGGGCATCAC-3′ (SEQ. ID. No. 28). PCR conditions were 95° C., 3 min, and 40 cycles of 95° C., 10 sec; 63.5° C., 45 sec. Specificity of PCR products were confirmed by gel electrophoresis.

In another assay the test system is HCAEC. In words: S100A1 overexpression and NO production in HCAEC. Type of assay: cell-based, human. Conditions: HCAEC pre-incubated with 10^−4 M 20 minutes prior to ACh.
Assay [2] concerns rat MI model (chronic HF). In words: Catheter-based in vivo hemodynamic measurements in post-MI HF rats. The note with it: mean ± SEM. As for the experimental part:
(§1) Rat MI model and cardiac gene delivery—All animal procedures and experiments were performed in accordance with the guidelines of the IACUC of Thomas Jefferson University. MI was induced as described previously using a model of cryoinfarction that produces a highly reproducible loss of myocardium^13. Briefly, anesthetized adult male (250-300 g) rats were intubated and mechanically ventilated and anaesthesia was maintained using a 2% isoflurane (v/v) oxygen mixture. The heart was exposed through a median sternotomy and the pericardium was opened. A 6-0 suture was placed at the apex of the LV. An 8 mm diameter cylindrical stamp was cooled in liquid nitrogen and then pressed on the LV free wall. Cryothermia was applied by use of three freeze cycles of 1 min each that was interrupted by one minute thawing intervals^13,15.
Myocardial gene transfer to 10 week post-MI rats was achieved as previously described^13,15 with some modifications. Briefly, under general anesthesia (2% isoflurane, v/v) a midline cervical incision was made and the animal was cooled to 29° C. using ice packs. A P-50 catheter (Becton Dickinson, Sparks, Md.) was advanced into the aortic root via the right carotid artery and the ascending aorta was looped using 2-0 silk. 1.2 mg adenosine was injected into the right ventricle using a 30½ G needle. Next, the ascending aorta was clamped and 2.5×10^11 particles of the AAV construct and 8 μg of substance P (Sigma) were rapidly injected into the aortic root allowing for coronary perfusion. After 2 min the aortic clamp was released, a bolus of dobutamine (30 μg; intra-arterial) was administered and the animal was re-warmed using a heating pad. The incision was closed and animals were transferred back to their cages receiving appropriate analgesia. […]
Catheter-based in vivo hemodynamic measurements—Cardiac function was measured 8 weeks following gene therapy (18 weeks after MI) in anesthetized rats (2% isoflurane; v/v) using 2 F pressure catheter (SPR-320; Millar instruments, Houston, Tex.). The pressure transducer was placed into the LV cavity through the right carotid artery and the right external jugular vein was cannulated with a P-10 catheter (Becton Dickinson, Sparks, Md.) that was used for isoproterenol administration (333 ng/kg BW) as previously described^13,15.

Assay [3] relates to adult rat ventricular cardiomyocytes. In words: Diastolic cell length of isolated cardiomyocytes. Conditions: 2 hrs after cardiomyocyte isolation, 3 animals per group, 18 weeks post-MI; mean ± SEM. Type of assay: cell-based.
Experimental: Isolation of adult rat ventricular cardiomyocytes—Ca^2+-tolerant adult cardiomyocytes were isolated from LVs 8 weeks after gene delivery (18 weeks post-MI) by a standard enzymatic digestion procedure and cultivated as described^13,15. […] Length of isolated cardiomyocytes was determined on enlarged digital photos using Olympus Fluoview 4.3 software.
For assay [4], the system named is LV mRNA (S100A1, SERCA2a, PLB, ANF, TGFβ1, Collagen I). In words: Real-time RT-PCR of cardiac expression of key genes in LV. Type of assay: in vivo, rat. The note with it: 18 weeks post-MI. As for the experimental part:
RNA isolation and real-time RT-PCR—Total RNA was isolated from LV as well as from isolated cardiomyocytes using either Ultraspec® (Biotec) or Trizol® (Life Technologies). cDNA was synthesized by reverse transcription of the RNA with Superscript II® (Life Technologies) as recommended. Real-time RT-PCR was performed in duplicates with a 1:100 dilution of the cDNA on a MyIQ real time PCR detection system (BioRad) with the SYBR® Green PCR master mix (Applied Biosystems) as described previously^13,15. The oligonucleotide primers to examine expression of genes were as follows: ANF, forward primer 5′-[…]-3′ (SEQ. ID. No. 13), reverse primer 5′-[…]-3′ (SEQ. ID. No. 14); SERCA2a, forward primer 5′-[…]-3′ (SEQ. ID. No. 15), reverse primer 5′-[…]-3′ (SEQ. ID. No. 16); PLB, forward primer 5′-[…]-3′ (SEQ. ID. No. 17), reverse primer 5′-[…]-3′(SEQ. ID. No. 18); S100A1, forward primer 5′-[…]-3′ (SEQ. ID. No. 19), reverse primer 5′-[…]-3′ (SEQ. ID. No. 20); TGF-131, forward primer 5′-[…]-3′ (SEQ. ID. No. 21), reverse primer 5′-[…]-3′(SEQ. ID. No. 22); Collagen type I, forward primer 5′-[…]-3′ (SEQ. ID. No. 23), reverse primer 5′-AGGTGATGTTCTGGG-3′(SEQ. ID. No. 24); GRK2, forward primer 5′-[…]-3′ (SEQ. ID. No. 25), reverse primer 5′-[…]-3′ (SEQ. ID. No. 26). For normalization, 18S rRNA was used, forward primer 5′-[…]-3′ (SEQ. ID. No. 27), reverse primer 5′-GGACATCTAAGGGCATCAC-3′ (SEQ. ID. No. 28). PCR conditions were 95° C., 3 min, and 40 cycles of 95° C., 10 sec; 60.5° C., 45 sec. Specificity of PCR products were confirmed by gel electrophoresis.
(Quantitative PCR measures a nucleic acid by following its amplification.)

Assay [5] deals with rat MI model (chronic HF). The assay is described as follows: Echocardiography of global cardiac function in post-MI HF rats. Type of assay: in vivo. As for the experimental part:
as §1
Myocardial gene transfer to 10 week post-MI rats was achieved as previously described^13,15 with some modifications. […]
Echocardiography—To measure global cardiac function, echocardiography was performed 10 and 18 weeks post-MI by use of the VisualSONICS VeVo 770 imaging system with a 710 scanhead in anesthetized animals (2% isoflurane, v/v). The internal diameter of the LV was measured in the short-axis view from M-mode recordings in end diastole and end systole. […]

For assay [6], the system named is adult rat ventricular cardiomyocytes. In words: Ca2+-transient analyses and contractile parameters of isolated adult rat cardiomyocytes. Conditions: 8 weeks after treatment; 1 Hz, 2.5 mM [Ca2+]e; for AAV6/S100A1 infected (green) cells only. It is filed as cell-based.
Assay [7] relates to rat MI model (chronic HF). The assay is described as follows: Heart weight to body weight ratio in post-MI HF rats. It is filed as in vivo. Conditions: 18 weeks post-MI; mean ± SEM.
Experimental: Myocardial gene transfer to 10 week post-MI rats was achieved as previously described^13,15 with some modifications. Briefly, under general anesthesia (2% isoflurane, v/v) a midline cervical incision was made and the animal was cooled to 29° C. using ice packs. A P-50 catheter (Becton Dickinson, Sparks, Md.) was advanced into the aortic root via the right carotid artery and the ascending aorta was looped using 2-0 silk. 1.2 mg adenosine was injected into the right ventricle using a 30½ G needle. Next, the ascending aorta was clamped and 2.5×10^11 particles of the AAV construct and 8 μg of substance P (Sigma) were rapidly injected into the aortic root allowing for coronary perfusion. […]
The next assay relates to mouse thoracic aorta. The assay is described as follows: In vitro physiology: relaxation/contraction response of thoracic aorta rings. From the text:
In Vitro physiology —The relaxation/contraction response of thoracic aortas of WT or SKO mice was examined using a commercially available mounting apparatus attached to a force transducer (ADInstruments). […] Data were normalized to the PE-induced EC50 contraction which were similar between all aorta tested.

In assay [8] the test system is endothelial surface of thoracic aorta. The assay is described as follows: NO release from mouse aorta. Conditions: ACh 10^−5 M. How it is done:
NO release from mouse aorta—NO release from the endothelial surface of aorta was measured in vitro using an Apollo 4000 “Free Radical Analyzer” (WPI, Sarasota, Fla.) as previously described with some modifications.^52 Briefly, thoracic aorta of WT (n=4) and SKO (n=4) mice were carefully isolated and pinned down in KH solution after connective tissue was thoroughly removed. NO was measured under baseline conditions as well as after ACh stimulation (10^−5 M). Two measurements were recorded per animal and condition and NO values were normalized to the weight of the vascular tissue.

The mark [9] stands for this setting: Isoproterenol (333 ng/kg BW), 8 weeks after gene therapy in HF.
The mark [10] stands for this setting: basal, 8 weeks after gene therapy in HF.

Experimental for HCAEC: S100A1 overexpression and NO production in HCAEC—S100A1 overexpression in HCAEC was achieved by electrical transfection of the plasmid pAdTrack-S100A1 (10 μg), which encodes for GFP and S100A1 both driven by individual cytomegalovirus (CMV) promoters. PBS and the plasmid pAdTrack (10 μg) were used as controls. 500,000 HCAEC were used for each transfection using Nucleofactor® (AMAXA biosystems) according to the manufacturers instructions and plated on 6 well dishes. 18 hours after transfection cells were stimulated using 10^−5M ACh or PBS for 1 hour. […] NO in the supernatant was measured indirectly using the Nitrate/Nitrite fluorometric assay kit (Cayman, Chemical) according to company recommendations. Transfection was controlled by GFP expression as described previously and cells were harvested for mRNA isolation. Experiments were run in triplicate and 3 individual experiments were performed.

“endothelin-1 (CSCSSLMDKECVYFCHLDIIW; ends and bridges not checked; cysteine pairing not given here; UniProt P05305 53-73, looked up) [ET-1]”: the “S100A1 mRNA levels” value in assay [1] is reported as “significantly reduced”.
Consider “angiotensin II (DRVYIHPF; Angiotensin-2; UniProt P01019 25-32, looked up) [Ang II]”, for which, in [1], the “S100A1 mRNA levels” value is given as “significantly reduced”.
As for `NCCOB(c1ccccc1)c1ccccc1` [2-APB, 2-aminoethoxydiphenylborate], the “ACh-stimulated NO generation after IP3R blockage” value in the assay with HCAEC is “abolished NO generation”.
On to `COCCc1ccc(OCC(O)CNC(C)C)cc1` (centres unmarked) [metoprolol], for which, in assay [2] (setting [9]), the HR is given as 308 ± 6^& min^−1, the “LV +dP/dt” value was found to be 9403 ± 491 mmHg/s, the “LV −dP/dt” value was found to be 5571 ± 333 mmHg/s and the LVEDP is listed as 2.8 ± 0.4 mmHg. The same compound showed an LVESP in assay [2] (setting [9]) of 105 ± 3.7 mmHg. In [2] (basal, 8 weeks after gene therapy in HF (18 weeks post-MI)), the HR is on record as 264 ± 8^& min^−1. Further, in assay [2] (setting [10]), the “LV +dP/dt” value stood at 4948 ± 225 mmHg/s, the “LV −dP/dt” value turned out to be 4418 ± 223 mmHg/s, the LVEDP came to 4.6 ± 0.5 mmHg and the LVESP is reported as 109 ± 3.1 mmHg. For the same compound, the “Cell length (diastolic)” value in assay [3] is 118.9 ± 2.3 μm. Also, in assay [4], the “Collagen I mRNA levels” value is on record as “significantly reduced”, the “TGFβ1 mRNA levels” value is “significantly reduced” and the “ventricular ANF mRNA expression” value is given as “significantly reduced”. In addition, in [4] (standardized to 18S rRNA), the “PLB mRNA levels” value was “attenuated the down-regulation”, the “SERCA2a mRNA levels” value is listed as “attenuated the down-regulation” and the “cardiac S100A1 mRNA” value was “attenuated the down-regulation”. Besides, the “LV chamber dilatation (LV diastolic dimension)” value in [5] (18 week post-MI compared to pre-treatment (10 week post-MI) values) was “significantly attenuated further LV chamber dilatation”. Besides, the “change in cardiac function (EF) over the 2 month treatment period” value in [5] (HF rats, metoprolol only (with GFP)) is “no improvement”. In addition, in assay [6], the “contractile properties and [Ca2+]i transients of isolated failing myocytes” value is “did not affect contractile properties”. Further, the HW/BW ratio in assay [7] was 2.77 ± 0.05 g/kg.
As a reminder, the EC50 is the concentration that produces a half-maximal response. Regarding `CNC[C@H](O)c1cccc(O)c1` [PE, phenylephrine], the EC50 in the assay on mouse thoracic aorta (Mus musculus, read-out: EC50 of the PE response (contraction)) was determined as 300 nM.
For `CC(=O)OCC[N+](C)(C)C` [ACh, acetylcholine], the “ACh stimulated aortic endothelial NO release” value in assay [8] (SKO mice (n=4), second value) is 134.5±25.3 nM NO/mg tissue; in [8] (WT mice (n=4)), 368.2±68.1 nM NO/mg tissue. Further, the “maximal response to ACh” value in the assay with mouse thoracic aorta (SKO aortas (n=6)) is reported as 55±6.49 % of PE-precontraction; in the assay with mouse thoracic aorta (WT control aortas (n=6)) it was 14±2.41 % of PE-precontraction.
